Experimental data as given in patent US12214039B2, “Systems and methods for treatments of an eye with a photosensitizer” (Avedro, Inc., priority 2015, dated 2025).
“Also recorded” adds a separate entry of the source.

What was measured:
[1] = single surfactant; cited from earlier work
[2] = system: pig eyes with intact epithelium; assay: Relative fluorescence (F/Fo) of cross-linked corneal flaps, surfactants in riboflavin solution (Study 4)
Description: Pig eyes shipped overnight on ice from an abattoir (SiouxPreme, Sioux City, IA) were rinsed in saline. The eyes with intact epithelium were soaked with one of the test solutions below for 20 minutes in an incubator set at 37° C. by using a rubber ring to hold the solution on top.
For a Group A of the pig eyes, the following riboflavin formulations were used: • (a1) 0.25% riboflavin solution containing BAC (PARACEL™, Avedro, Inc., Waltham, MA); • (a2) 0.1% w.v. riboflavin solution containing saline (PHOTREXA ZD™ Avedro, Inc., Waltham, MA) with added riboflavin to match the riboflavin content (0.25%) in solution (a1); • (a3) solution (a2) with 1% Polidocanol; • (a4) solution (a2) with 5% Polidocanol; and • (a5) solution (a2) with 10% Polidocanol.
The epitheliums of eyes in Group A were removed with a dull blade after the eyes were soaked in one of the solutions and irradiated pan-corneally on air with a top hat beam (3% root mean square) for 4 minutes with 365-nm light source (UV LED NCSU033B[T]; Nichia Co., Tokushima, Japan) at a chosen irradiance of 30 mW/cm^2 which was measured with a power sensor (model PD-300-UV; Ophir, Inc., Jerusalem, Israel) at the corneal surface. Corneal flaps (approximately 200 μm thick) were excised from the eyes with aid of an Intralase femtosecond laser (Abbot Medical Optics, Santa Ana, CA). The average thickness of the corneal flaps was calculated as a difference between the measurements before and after the excision from the eyes with an ultrasonic Pachymeter (DGH Technology, Exton, PA). The flaps were washed with distilled water and dried in a vacuum until the weight change became less than 10% (Rotary vane vacuum pump RV3 A652-01-903, BOC Edwards, West Sussex, UK). […] Papain digests were diluted 0.5 times with 1×BBBS and fluorescence of the solutions was measured with excitation of 360 nm in a QM-40 Spectrofluorometer (Photon Technology Int., London, Ontario, Canada). The fluorescence of the papain buffer was taken into account by measuring fluorescence in the absence of tissue and subtracting this value from the fluorescence of the samples. […]

[3] = in riboflavin solution, pig eyes

| Compound | HLB number [1] | corrosion and damage to the epithelium ([2]; corneal epithelium) | enhancing permeability and generating cross-linking activity, compared with other surfactants [2, 3] | enhancing permeability in the epithelium and generating cross-linking activity, compared with BAC [2, 3] |
| --- | --- | --- | --- | --- |
| CCCCCCCCCc1ccc(OCCOCCOCCOCCOCCOCCOCCOCCOCCO)cc1 [IGEPAL CO-630] | 13 |  |  |  |
| Polyoxyethylene (9) lauryl ether [Polidocanol] |  | do not cause damage to the epithelium; also recorded: less corrosive and damaging to the epithelium than BAC | more effective than many other surfactants | far more effective and efficient than BAC |
